Experimental findings from the kinase profiling compilation of Christmann-Franck et al. (2016) are described below.

Test in all cases: KINOMEscan competition binding
What all share (details): compound 10.0 µM

Experiment [1] deals with PIK3CA (human), P42336 [E545A].
Experiment [2] deals with PIK3CA (human), P42336 [I800L].
The subject of experiment [3] is EGFR (human), P00533 [P753S; 747-752 del].
Experiment [4] has as its system ABL1 (human), P00519 [M351T].
Experiment [5] has as its system FLT3 (human), P36888 [K663Q].
For experiment [6], the system named is FLT3 (human), P36888 [N841I].
The test system of experiment [7] is EGFR (human), P00533 [G719S].
Experiment [8] concerns PIK3CA (human), P42336 [Q546K].
PIK3CA (human), P42336 [Q546K], sequence (P42336 whole entry Q546K, looked up): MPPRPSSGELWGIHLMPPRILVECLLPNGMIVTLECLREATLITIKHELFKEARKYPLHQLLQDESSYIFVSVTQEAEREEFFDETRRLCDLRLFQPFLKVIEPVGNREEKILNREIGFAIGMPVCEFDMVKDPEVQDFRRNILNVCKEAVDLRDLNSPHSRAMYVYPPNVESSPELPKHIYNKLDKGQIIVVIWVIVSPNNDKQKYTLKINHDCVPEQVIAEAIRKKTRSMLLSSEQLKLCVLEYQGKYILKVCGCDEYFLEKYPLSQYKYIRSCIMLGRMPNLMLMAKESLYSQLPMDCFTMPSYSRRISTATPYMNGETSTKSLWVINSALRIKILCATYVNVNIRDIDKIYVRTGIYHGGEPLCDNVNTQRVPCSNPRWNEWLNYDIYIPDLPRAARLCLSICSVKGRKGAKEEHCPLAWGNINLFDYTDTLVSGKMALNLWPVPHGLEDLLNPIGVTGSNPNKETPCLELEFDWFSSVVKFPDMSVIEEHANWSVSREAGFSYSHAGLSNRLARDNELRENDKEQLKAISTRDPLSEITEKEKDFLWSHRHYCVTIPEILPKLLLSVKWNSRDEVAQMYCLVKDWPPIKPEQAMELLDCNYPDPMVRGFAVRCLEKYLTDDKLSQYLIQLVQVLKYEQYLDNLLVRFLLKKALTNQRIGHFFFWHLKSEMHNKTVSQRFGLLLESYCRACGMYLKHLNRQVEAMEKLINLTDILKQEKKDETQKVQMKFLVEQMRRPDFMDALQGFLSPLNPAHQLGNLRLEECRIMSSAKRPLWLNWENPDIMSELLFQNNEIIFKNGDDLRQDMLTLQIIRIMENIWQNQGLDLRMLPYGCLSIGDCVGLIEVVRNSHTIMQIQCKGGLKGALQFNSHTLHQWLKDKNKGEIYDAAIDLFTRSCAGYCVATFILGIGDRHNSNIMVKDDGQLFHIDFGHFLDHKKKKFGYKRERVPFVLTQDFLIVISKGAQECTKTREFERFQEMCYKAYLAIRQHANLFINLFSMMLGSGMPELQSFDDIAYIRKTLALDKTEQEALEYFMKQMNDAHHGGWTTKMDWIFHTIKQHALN
Experiment [9] has as its system ABL1 (human), P00519 [E255K].
The test system of experiment [10] is KIT (human), P10721 [V559D].
KIT (human), P10721 [V559D], sequence (P10721 whole entry V559D, looked up): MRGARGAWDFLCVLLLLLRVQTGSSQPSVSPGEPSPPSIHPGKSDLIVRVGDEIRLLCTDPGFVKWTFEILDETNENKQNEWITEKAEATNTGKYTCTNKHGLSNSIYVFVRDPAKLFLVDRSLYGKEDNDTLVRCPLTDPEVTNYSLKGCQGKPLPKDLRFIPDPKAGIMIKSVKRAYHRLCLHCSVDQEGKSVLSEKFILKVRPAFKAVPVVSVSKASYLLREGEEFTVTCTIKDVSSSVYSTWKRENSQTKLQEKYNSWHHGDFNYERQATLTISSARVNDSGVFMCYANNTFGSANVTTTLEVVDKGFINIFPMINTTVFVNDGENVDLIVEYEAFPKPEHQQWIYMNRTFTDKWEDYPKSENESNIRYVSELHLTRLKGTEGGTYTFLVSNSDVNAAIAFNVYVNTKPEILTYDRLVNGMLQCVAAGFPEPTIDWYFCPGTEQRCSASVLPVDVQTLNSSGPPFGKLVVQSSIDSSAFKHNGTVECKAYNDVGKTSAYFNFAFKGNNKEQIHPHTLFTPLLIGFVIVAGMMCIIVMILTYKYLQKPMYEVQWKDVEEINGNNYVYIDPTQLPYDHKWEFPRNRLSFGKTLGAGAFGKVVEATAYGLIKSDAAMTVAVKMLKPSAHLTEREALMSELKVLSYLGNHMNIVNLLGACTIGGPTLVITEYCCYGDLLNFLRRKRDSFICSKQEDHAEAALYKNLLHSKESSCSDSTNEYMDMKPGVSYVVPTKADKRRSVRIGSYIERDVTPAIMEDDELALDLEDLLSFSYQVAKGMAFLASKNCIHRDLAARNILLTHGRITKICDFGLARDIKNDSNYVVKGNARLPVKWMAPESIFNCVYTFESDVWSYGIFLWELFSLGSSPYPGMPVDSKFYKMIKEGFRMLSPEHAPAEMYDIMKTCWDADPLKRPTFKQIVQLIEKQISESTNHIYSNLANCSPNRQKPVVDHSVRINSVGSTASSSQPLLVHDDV
Experiment [11] deals with EGFR (human), P00533 [L861Q].
In experiment [12] the test system is KIT (human), P10721 [V559D/T670I].
KIT (human), P10721 [V559D/T670I], sequence (P10721 whole entry V559D/T670I, looked up): as the sequence (P10721 whole entry V559D, looked up) above, with T670I counted along it
For experiment [13], the system named is PIK3CA (human), P42336 [E545K].
PIK3CA (human), P42336 [E545K], sequence (P42336 whole entry E545K, looked up): as the sequence (P42336 whole entry Q546K, looked up) above, with E545K, K546Q counted along it
The subject of experiment [14] is EIF2AK4 KD2 (human), Q9P2K8 [S808G].
Experiment [15] has as its system PIK3CA (human), P42336 [C420R].
In experiment [16] the test system is PIK3CA (human), P42336 [H1047Y].
PIK3CA (human), P42336 [H1047Y], sequence (P42336 whole entry H1047Y, looked up): as the sequence (P42336 whole entry Q546K, looked up) above, with K546Q, H1047Y counted along it
Experiment [17] deals with KIT (human), P10721 [D816V].
KIT (human), P10721 [D816V], sequence (P10721 whole entry D816V, looked up): as the sequence (P10721 whole entry V559D, looked up) above, with D559V, D816V counted along it
For experiment [18], the system named is FLT3 (human), P36888 [ITD].
The subject of experiment [19] is EGFR (human), P00533 [746-750 del].

EIF2AK4 KD2 (human), Q9P2K8 [S808G], sequence (Q9P2K8 whole entry S808G, looked up): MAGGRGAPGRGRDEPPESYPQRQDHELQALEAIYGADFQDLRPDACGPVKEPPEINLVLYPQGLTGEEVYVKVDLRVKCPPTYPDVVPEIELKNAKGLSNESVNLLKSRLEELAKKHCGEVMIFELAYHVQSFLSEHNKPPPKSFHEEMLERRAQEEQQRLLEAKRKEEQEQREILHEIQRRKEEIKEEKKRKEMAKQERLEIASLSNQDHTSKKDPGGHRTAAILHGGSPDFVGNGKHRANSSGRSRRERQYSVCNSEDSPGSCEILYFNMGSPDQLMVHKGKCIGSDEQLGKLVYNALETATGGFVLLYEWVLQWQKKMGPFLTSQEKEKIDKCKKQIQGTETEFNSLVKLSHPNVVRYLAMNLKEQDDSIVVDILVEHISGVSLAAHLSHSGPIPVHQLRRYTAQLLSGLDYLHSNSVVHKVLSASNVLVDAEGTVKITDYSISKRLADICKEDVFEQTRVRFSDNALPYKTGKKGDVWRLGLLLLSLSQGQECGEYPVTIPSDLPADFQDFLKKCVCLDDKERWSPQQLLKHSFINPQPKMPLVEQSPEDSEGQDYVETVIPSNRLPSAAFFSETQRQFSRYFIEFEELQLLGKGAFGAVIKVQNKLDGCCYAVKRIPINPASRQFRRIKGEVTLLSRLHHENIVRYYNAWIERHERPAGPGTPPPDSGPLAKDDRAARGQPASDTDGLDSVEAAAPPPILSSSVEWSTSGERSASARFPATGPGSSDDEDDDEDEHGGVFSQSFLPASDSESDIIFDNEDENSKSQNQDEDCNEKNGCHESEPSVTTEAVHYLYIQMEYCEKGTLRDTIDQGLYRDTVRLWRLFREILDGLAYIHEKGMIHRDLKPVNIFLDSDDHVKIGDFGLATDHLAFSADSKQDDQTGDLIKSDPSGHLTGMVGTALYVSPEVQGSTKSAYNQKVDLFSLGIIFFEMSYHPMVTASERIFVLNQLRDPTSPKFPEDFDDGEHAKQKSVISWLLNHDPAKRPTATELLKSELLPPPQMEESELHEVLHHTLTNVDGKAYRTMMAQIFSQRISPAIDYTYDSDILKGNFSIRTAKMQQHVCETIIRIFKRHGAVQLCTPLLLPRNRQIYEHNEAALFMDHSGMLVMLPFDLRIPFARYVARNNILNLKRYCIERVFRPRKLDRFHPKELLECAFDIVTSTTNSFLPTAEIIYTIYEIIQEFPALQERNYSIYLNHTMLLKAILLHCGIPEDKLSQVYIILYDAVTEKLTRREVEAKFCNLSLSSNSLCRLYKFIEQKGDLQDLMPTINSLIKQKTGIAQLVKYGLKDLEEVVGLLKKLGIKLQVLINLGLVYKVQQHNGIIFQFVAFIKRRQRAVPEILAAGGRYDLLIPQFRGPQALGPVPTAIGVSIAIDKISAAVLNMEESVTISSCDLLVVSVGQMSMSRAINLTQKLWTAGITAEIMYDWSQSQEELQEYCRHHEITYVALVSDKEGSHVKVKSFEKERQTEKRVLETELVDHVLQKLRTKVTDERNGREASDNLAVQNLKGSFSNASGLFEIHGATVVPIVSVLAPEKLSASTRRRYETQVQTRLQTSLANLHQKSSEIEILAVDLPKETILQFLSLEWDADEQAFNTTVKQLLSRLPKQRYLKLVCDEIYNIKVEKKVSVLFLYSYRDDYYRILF
PIK3CA (human), P42336 [C420R], sequence (P42336 whole entry C420R, looked up): as the sequence (P42336 whole entry Q546K, looked up) above, with C420R, K546Q counted along it
PIK3CA (human), P42336 [E545A], sequence (P42336 whole entry E545A, looked up): as the sequence (P42336 whole entry Q546K, looked up) above, with E545A, K546Q counted along it
PIK3CA (human), P42336 [I800L], sequence (P42336 whole entry I800L, looked up): as the sequence (P42336 whole entry Q546K, looked up) above, with K546Q, I800L counted along it

As to `COc1cc2ncnc(Nc3cccc(Cl)c3)c2cc1OC`, the kinase still bound, per cent of control in experiment [1] was 98%; in experiment [2], 46%; in experiment [3] it was 1.4%; in experiment [4] it was 1.4%; in experiment [5], 35%; in [6] it was 7.2%. Also, the kinase still bound, per cent of control in experiment [7] is 0.9%; in experiment [8], 82%; in experiment [9] it was 6.6%; in experiment [10], 16%; in experiment [11], 0.1%; in experiment [12] it was 49%. In addition, the kinase still bound, per cent of control in [13] worked out at 71%; in [14] it was 56%; in [15] it was 60%; in experiment [16] it was 95%; in experiment [17] it was 38%; in [18] it was 24%. Besides, the kinase still bound, per cent of control in [19] turned out to be 3.3%.

On to `CN(C)C/C=C/C(=O)Nc1ccc(C(=O)Nc2cccc(Nc3nccc(-c4cccnc4)n3)c2)cc1`, for which the kinase still bound, per cent of control in experiment [1] stood at 100%; in experiment [2], 60%; in experiment [3], 96%; in experiment [4], 29%; in experiment [5], 34%; in [6], 31%. Further, the kinase still bound, per cent of control in experiment [7] was 97%; in [8], 100%; in experiment [9], 29%; in experiment [10] it was 0.5%; in [11], 56%; in experiment [12] it was 10%. Besides, the kinase still bound, per cent of control in [13] came out at 100%; in experiment [14], 97%; in [15] it was 100%; in experiment [16], 100%; in [17] it was 30%; in experiment [18] it was 30%. In [19], this compound came in with a kinase still bound, per cent of control of 100%.

Turning to `O=c1[nH]c2ccccc2n1C1CCN(Cc2ccc(-c3nc4cc5[nH]cnc5cc4nc3-c3ccccc3)cc2)CC1`, the kinase still bound, per cent of control in experiment [1] was found to be 95%; in [2], 51%; in experiment [3] it was 73%; in experiment [4] it was 78%; in experiment [5], 56%; in experiment [6], 61%. Also, the kinase still bound, per cent of control in experiment [7] worked out at 83%; in [8] it was 80%; in experiment [9] it was 93%; in experiment [10], 100%; in [11] it was 66%; in [12], 100%. For the same compound, the kinase still bound, per cent of control worked out at 69% in [13]; 100% in experiment [14]; 62% in [15]; 100% in experiment [16]; 79% in [17]; 60% in experiment [18]. This compound also had a kinase still bound, per cent of control in experiment [19] of 80%.

With `COc1cc2ncnc(-n3nc(-c4ccccn4)nc3N)c2cc1OC`, the kinase still bound, per cent of control was 18% in experiment [1]; 2.8% in experiment [2]; 68% in experiment [3]; 1.2% in experiment [4]; 21% in experiment [5]; 0.4% in experiment [6]. The kinase still bound, per cent of control in experiment [7] turned out to be 57%; in [8], 38%; in experiment [9] it was 0.4%; in [10], 3.4%; in [11], 64%; in [12], 47%. Moreover, the kinase still bound, per cent of control in [13] is 40%; in [14], 1.6%; in experiment [15], 41%; in experiment [16], 24%; in experiment [17], 0.15%; in experiment [18], 5.6%. For the same compound, in experiment [19], the kinase still bound, per cent of control stood at 50%.

Consider `COc1ccc(N(C(=O)Oc2c(C)cccc2C)c2ccnc(Nc3ccc(N4CCN(C)CC4)cc3)n2)c(OC)c1`, for which the kinase still bound, per cent of control in experiment [1] came to 45%; in [2], 100%; in experiment [3], 0%; in experiment [4], 1.3%; in [5], 3.4%; in experiment [6] it was 0.65%. Further, the kinase still bound, per cent of control in [7] is 0.45%; in [8] it was 81%; in [9], 0.3%; in experiment [10] it was 0.25%; in experiment [11] it was 0.1%; in experiment [12] it was 48%. Moreover, the kinase still bound, per cent of control in experiment [13] was 100%; in experiment [14], 100%; in experiment [15], 100%; in [16], 94%; in experiment [17], 3.4%; in [18], 4.8%. In experiment [19], this compound registered a kinase still bound, per cent of control of 0%.

On to `CC1=C(C(=O)Nc2cc3cn[nH]c3cc2F)C(c2ccc(C(F)(F)F)cc2)CC(=O)N1` (stereo not drawn), for which the kinase still bound, per cent of control in experiment [1] amounted to 38%; in experiment [2], 100%; in experiment [3] it was 100%; in experiment [4], 82%; in experiment [5] it was 78%; in [6], 75%. Also, the kinase still bound, per cent of control was 57% in experiment [7]; 32% in experiment [8]; 77% in experiment [9]; 82% in experiment [10]; 91% in experiment [11]; 88% in [12]. Moreover, the kinase still bound, per cent of control in [13] came to 100%; in experiment [14] it was 100%; in experiment [15], 63%; in experiment [16] it was 43%; in experiment [17], 49%; in experiment [18], 83%. In addition, the kinase still bound, per cent of control in experiment [19] was determined as 96%.

On to `O=C1NC(=O)/C(=C/c2ccc3nccc(-c4ccncc4)c3c2)S1`, for which the kinase still bound, per cent of control in experiment [1] turned out to be 0.1%; in experiment [2] it was 12%; in experiment [3], 74%; in experiment [4], 56%; in experiment [5], 37%; in experiment [6], 39%. Also, the kinase still bound, per cent of control in experiment [7] was 78%; in experiment [8], 1.3%; in [9], 71%; in experiment [10], 30%; in experiment [11] it was 87%; in [12] it was 76%. Moreover, the kinase still bound, per cent of control in experiment [13] worked out at 0.75%; in experiment [14], 7.4%; in [15] it was 0.4%; in experiment [16] it was 0.9%; in [17] it was 63%; in experiment [18], 47%. Moreover, the kinase still bound, per cent of control in experiment [19] came to 81%.
